Test results taken from patent US12076304B2, “Compositions comprising 15-HEPE and methods of treating or preventing hematologic disorders, and/or related diseases” (priority 2020, dated 2024).
Entries after “also recorded” stand apart in the source; their conditions may differ.

What was measured:
NAFLD patients [1] = assay: Phase IIa study in NAFLD patients: metabolic and glycemic parameters; format: in vivo, human
Experimental: (§1) The study was planned to include 96 evaluable patients with 32 patients randomized per treatment group.
HOMA-IR/Adipo-IR: HOMA-IR/Adipo-IR levels are a method of measuring insulin resistance. HOMA-IR is calculated by multiplying fasting plasma insulin (FPI) by fasting plasma glucose (FPG), then dividing by the constant 405. Adipo-IR is calculated by multiplying fasting non-esterified fatty acids (NEFA)×fasting insulin. Blood samples were taken to assess HOMA-IR and Adipo-IR at Visit 2/Baseline, Visit 3/Week 2, Visit 4/Week 4, Visit 6/Week 8, Visit 8/Week 12, Visit 10/Week16 and Follow up Visit 11/Week 20. All subjects were required to have been fasted for a minimum of 8 hours prior to blood sampling. If subjects had not fasted for a minimum of 8 hours, the duration of fasting time was recorded, and subjects encouraged to fast appropriately for the next clinical visit.
Exploratory analysis: The exploratory analysis included analysis of lipid and metabolic parameters including total cholesterol, triglycerides, very low-density lipoprotein cholesterol (VLDL-C), low density lipoprotein cholesterol (LDL-C), high density lipoprotein cholesterol (HDL-C), non-high-density lipoprotein cholesterol (non-HDL-C), remnant-like particle cholesterol (RLP-C), fasting glucose, insulin, free fatty acids and hemoglobin A1C (HbA1C). Additional exploratory analysis included high throughput lipidomics and proteomics.

[2] = system: cholestasis induced by BDL; assay: BDL mice: serum biochemistry (ALT, total bilirubin); format: in vivo; conditions: for Serum ALT / Serum Total Bilirubin: n = 8
Experimental: Sample Collection: For serum samples, non-fasting blood was collected in serum separate tubes without anticoagulant through direct cardiac puncture and centrifuged at 3,500×g for 4 minutes at 4° C. The supernatant was collected and stored at −80° C. for biochemistry (30 μL) and shipping (all the remaining). For liver samples, left lateral lobe was collected and cut into 6 pieces. Two pieces of left lateral lobe were fixed in Bouin's solution and then embedded in paraffin. Samples were stored at room temperature for histological analysis. The other 2 pieces of left lateral lobe were embedded in O.C.T. compound and quick frozen in liquid nitrogen. Samples were stored at −80° C. The remaining pieces of left lateral lobe was snap frozen in liquid nitrogen and stored at −80° C. for gene expression analyses. Right medial lobe, left medial lobe, right lobe and caudate lobe were snap frozen in liquid nitrogen and stored at −80° C. for shipping.

Collagen Type 1 mRNA = assay: BDL mice liver quantitative RT-PCR, Collagen Type 1; format: in vivo; conditions: for Collagen Type 1 relative mRNA expression level: BDL mice liver, normalized to 36B4, Sham 1.00, mean ± SD
Experimental: Quantitative RT-PCR: Total ribonucleic acid (RNA) was extracted from liver samples using RNAiso (Takara Bio, Japan) according to the manufacturer's instructions. One μg of RNA was reverse-transcribed using a reaction mixture containing 4.4 mM magnesium chloride (MgCl2) (F. Hoffmann-La Roche, Switzerland), 40 U RNase inhibitor (Toyobo, Japan), 0.5 mM dNTP (Promega, USA), 6.28 μM random hexamer (Promega), 5× first strand buffer (Promega), 10 mM dithiothreitol (Invitrogen, USA) and 200 U MMLV-RT (Invitrogen) in a final volume of 20 μL. The reaction was carried out for 1 hour at 37° C., followed by 5 minutes at 99° C. Real-time PCR was performed using real-time PCR DICE and TB Green™ Premix Ex Taq™ II (Takara Bio). To calculate the relative mRNA expression level, the expression of each gene (α-SMA, TIMP-1, TGF-β and Collagen Type 1) was normalized to that of reference gene 36B4 (gene symbol: Rplp0). Information regarding the PCR-primer sets and the plate layout are described in Tables 8 and 9.

NAFLD patients [3] = assay: Phase IIa study in NAFLD patients: panel of protein biomarkers (proteomics); format: in vivo, human
Description: as §1

[4] = 1 g or 2 g per day, baseline to Week 16 vs placebo
[5] = 50 mg/kg PO QD Day 0-13, Day 14, mean ± SD
[6] = 250 mg/kg PO QD Day 0-13, Day 14, mean ± SD
[7] = 500 mg/kg PO QD Day 0-13, Day 14, mean ± SD

## 15-HEPE [DS102]
NAFLD patients [1]; 1 g or 2 g per day, 16 weeks
  insulin sensitivity and glycemic control: improvement
  markers of metabolic overload: statistically significant reduction
NAFLD patients [1]; 1 g or 2 g per day, Week 16
  insulin resistance indices (HOMA-IR and adipo-IR levels): improvement
NAFLD patients [1]; [4]
  HbA1c levels / glycemic control: clinically significant improvements
  insulin, glucose, and free fatty acid levels: reduction
NAFLD patients [1]; 2 g per day, Week 16, Per Protocol Set
  insulin resistance indices (HOMA-IR and adipo-IR levels): significant improvements
[2]; [5]
  Serum ALT: 402 ± 112 U/L
  Serum Total Bilirubin: 26.8 ± 6.9 mg/dL
[2]; [6]
  Serum ALT: 351 ± 155 U/L
  Serum Total Bilirubin: 23.5 ± 9.8 mg/dL
[2]; [7]
  Serum ALT: 383 ± 147 U/L
  Serum Total Bilirubin: 26.2 ± 6.1 mg/dL
[2]; 50, 250 and 500 mg/kg PO QD
  serum ALT level vs Vehicle group: no significant differences
  serum total bilirubin level vs Vehicle group: no significant differences
Collagen Type 1 mRNA; 50 mg/kg PO QD Day 0-13
  Collagen Type 1 relative mRNA expression level: 4.94 ± 2.76
Collagen Type 1 mRNA; 250 mg/kg PO QD Day 0-13
  Collagen Type 1 relative mRNA expression level: 4.21 ± 1.90
Collagen Type 1 mRNA; 500 mg/kg PO QD Day 0-13
  Collagen Type 1 relative mRNA expression level: 2.51 ± 1.39
Collagen Type 1 mRNA; BDL mice, 500 mg/kg PO QD Day 0-13, 500 mg/kg
  Collagen Type 1 mRNA expression level compared with the Vehicle group: tended to decrease; also recorded: trend approaching significance
Collagen Type 1 mRNA; BDL mice, DS102 treatment groups as a whole
  Collagen Type 1 mRNA expression level, Vehicle group vs the DS102 treatment groups: no significant differences
NAFLD patients [3]; 1 g
  TR (protein level): significant reductions
NAFLD patients [3]; 1 g group, Placebo group 0 proteins
  proteins that passed the 1st threshold based on the Benjamini-Hochberg testing: 1
NAFLD patients [3]; 2 g
  NASH drug development targets (CCR215 signaling, Galectin3, AOC3): decreased
NAFLD patients [3]; 2 g, Table 21: PAI-1, TIMP-1, DPP4, TLT2, CCL16, MCP-1, SAA4, PI3, TR, LILRB1, TNRSF11A, Table 22: TL12, AOC3, PRSS2
  inflammatory and pro-fibrotic proteins (protein expression): decreased
NAFLD patients [3]; 2 g, panel of greater than 350 protein biomarkers
  number of markers (inflammation, fibrosis, lipid metabolism, apoptosis, chemotaxis) with significantly downregulated expression: over 150
NAFLD patients [3]; NAFLD patients, vs placebo
  expression of multiple circulating chemokines: decreased
  expression of multiple proteins associated with increased cardiovascular risk: decreased
  expression of multiple tumor necrosis factor receptor superfamily members: decreased
  expression of multiple vascular adhesion molecules: decreased
